How the values were obtained:
B. longum BORI = test: Analysis of bacterial culture supernatant (TLC, HPLC organic acids); assay type: cell-based, Bifidobacterium longum; settings: substance as carbon source
Bac. Thetaiotaomicron = test: Analysis of bacterial culture supernatant (HPLC organic acids); assay type: cell-based; settings: substance as carbon source
B. catenulatum = test: as above; assay type: cell-based, Bifidobacterium catenulatum; settings: substance as carbon source
B. bifidum BGN4 = test: as above; assay type: cell-based, Bifidobacterium bifidum; settings: substance as carbon source
[1] = system: all bacteria used for tests; test: Microbial growth curve (OD600), all bacteria used for tests; assay type: cell-based; settings: compared to positive control (glucose)
Method: (§1) All strains were obtained from the official institute of strain distribution or by the food microbiology laboratory of Seoul National University. Eight bifidobacteria strains, four Lactobacillus (lactic acid bacteria) strains, lactis KCTC 2013 (Lactococcus lactis subsp. lactis KCTC 2013), and Streptococcus thermophilus KCTC 3779 were sub-cultured in MRS supplemented with 0.05% (w/v) L-cysteine.HCl (de-Mann-Rogosa-Sharpe broth; Difco, Detroit, USA) at 37° C., twice every 18 hours prior to use. Other strains were sub-cultured in BHIB (brain-heart infusion broth; Difco) under the same culture conditions as above prior to use.
(§2) A basal medium used for the bacterial growth test was sugar-free BHIB (MB Cell, Los Angeles, Calif., USA). […]
(§3) In order to remove glucose or other carbon source present in a culture medium of activated bacteria, cultured bacteria were centrifuged (15,000×g, 5 min), the supernatant was discarded and the precipitated bacteria were washed with PBS (pH 7.4) twice. […] Bacterial proliferation was checked by measuring optical density (OD) of the culture solution, absorbance at 600 nm was measured with a microplate reader (BioRad, Hercules, Calif., USA) and a growth curve was made. Bacterial growth was analyzed by comparing maximum OD600 values at a substance concentration of 1% (w/v). […]

B. longum RD47 = test: Analysis of bacterial culture supernatant (HPLC organic acids); assay type: cell-based, Bifidobacterium longum; settings: substance as carbon source
Caco-2 cells = test: Change in growth of Caco-2 cells depending on medium composition (trypan blue cell count); settings: 4 days
Method: To avoid main use of glucose as an energy source for cell growth in a standard culture medium of Caco-2 cells containing a high concentration of glucose (4.5 g/L), cellular growth was compared in the presence of a high concentration of glucose (4.5 g/L) and pyruvate using a glucose-free DMEM (Dulbecco's modified Eagle's medium; Gibco BRL, Grand Island, N.Y., USA).
10% (w/v) solutions of NaB, FOS and B-FOS in PBS were prepared and filtered through a 0.2 μm membrane filter. NaB, FOS and B-FOS were each prepared at a concentration of 0.005 to 0.06% (w/v) in a DMEM medium containing high concentrations of glucose (4.5 g/L) and pyruvate (Glu+Pyr+) and a DMEM medium not containing the same (Glu−Pyr−), and were then used for the test.
5×10^5 cells were seeded in a dose of 1.5 mL in a 25 cm^2 flask (SPL Life Science, Pocheon, South Korea) and cultured for 3 days in 37° C., 5% CO2 cell incubator until 50% confluence was obtained. Then, the medium was replaced with a medium supplemented with 0.005 to 0.06% (w/v) of NaB, FOS and B-FOS and then cultured under the same conditions for 4 days. The culture supernatant was harvested for testing and adsorbed cells were washed with PBS twice, were treated with trypsin/EDTA, and were isolated from the flask. […] The control group was a medium supplemented with PBS and a mean of values obtained by repeating tests three times is shown.

Staphylococcus aureus = test: Microbial growth curve (OD600); assay type: cell-based; settings: 1% (w/v)
Method: as §1, §2, §3

all strains = test: Analysis of bacterial culture supernatant (HPLC organic acids), all strains; assay type: cell-based; settings: medium containing the substance
Clostridium butyricum = assay type: cell-based; settings: 1% (w/v)
L. casei = test: Analysis of bacterial culture supernatant (HPLC organic acids); assay type: cell-based, Lactobacillus casei; settings: substance as carbon source
Bac. Fragilis = test: as above; assay type: cell-based; settings: substance as carbon source
E. Faecalis = test: Analysis of bacterial culture supernatant (TLC, HPLC organic acids); assay type: cell-based, Enterococcus faecalis; settings: substance as carbon source
E. coli = test: Analysis of bacterial culture supernatant (HPLC organic acids); assay type: cell-based, Escherichia coli; settings: substance as carbon source
[2] = Cell viability by MTT analysis; assay type: cell-based; settings: human, Caco-2 cells, percentage of control
Method: MTT analysis was conducted to confirm cytotoxicity derived from B-FOS. 100 μl of Caco-2 cells were seeded at a density of 2,000 cells/well onto a 96-well plate and cultured at 37° C. in a 5% CO2 cell incubator for 48 hours. […] After completion of culture, 20 μl of a 5 mg/mL MTT solution was added to each well, reaction was conducted for 4 hours again and the supernatant was removed. The formed crystal was dissolved in 100 μl of dimethyl sulfoxide (DMSO) and an absorbance at 750 nm was measured using a microplate spectrophotometer. Cell viability was represented as a percentage with respect to the control group with no treatment and a mean of values by repeating the test four times was indicated (FIG. 16).

SMILES: CCCC(=O)[O-].[Na+] [NaB, Sodium Butyrate]
- Acetic acid (B. longum BORI): + (0.05% (v/v) or less)
- Butyric acid (B. longum BORI): +++ (no more than 0.25% (v/v))
- Lactic acid (B. longum BORI): + (0.05% (v/v) or less)
- Acetic acid (Bac. Thetaiotaomicron): + (0.05% (v/v) or less)
- Butyric acid (Bac. Thetaiotaomicron): +++ (no more than 0.25% (v/v))
- Lactic acid (Bac. Thetaiotaomicron): −
- Acetic acid (B. catenulatum): + (0.05% (v/v) or less)
- Butyric acid (B. catenulatum): +++ (no more than 0.25% (v/v))
- Lactic acid (B. catenulatum): ++ (0.05% (v/v) − 0.25% (v/v))
- Acetic acid (B. bifidum BGN4): + (0.05% (v/v) or less)
- Butyric acid (B. bifidum BGN4): +++ (no more than 0.25% (v/v))
- Lactic acid (B. bifidum BGN4): + (0.05% (v/v) or less)
- growth / use by bacteria used for tests [1]: could not be grown well
- Acetic acid (B. longum RD47): + (0.05% (v/v) or less)
- Butyric acid (B. longum RD47): +++ (no more than 0.25% (v/v))
- Lactic acid (B. longum RD47): + (0.05% (v/v) or less)
- decrease in the number of cells as compared to the control group (Caco-2 cells; Glu+Pyr+ medium, 0.005% (w/v)): about 30%
- decrease in the number of cells as compared to the control group (Caco-2 cells; Glu+Pyr+ medium, 0.04% (w/v)): ~50%
- decrease in the number of cells as compared to the control group (Caco-2 cells; Glu+Pyr+ medium, 0.06% (w/v)): ~65%
- number of cells vs control group (Caco-2 cells; Glu−Pyr− medium, 0.005% (w/v)): increased
- number of cells vs control group (Caco-2 cells; Glu−Pyr− medium, 0.02% (w/v)): increased
- number of cells vs control group (Caco-2 cells; Glu−Pyr− medium, 0.04% (w/v)): no significant difference
- decrease in the number of cells as compared to the control group (Caco-2 cells; Glu−Pyr− medium, 0.06% (w/v)): 35%
- growth of bacteria (Staphylococcus aureus; vs negative control): significantly inhibited
- maximum OD600 (Staphylococcus aureus; negative control OD600=0.36): 0.25
- butyric acid in culture solutions (HPLC) (all strains): detected
- growth of bacteria (Clostridium butyricum; vs negative control): significantly inhibited
- maximum OD600 (Clostridium butyricum; negative control OD600=0.49): 0.42
- Acetic acid (L. casei): + (0.05% (v/v) or less)
- Butyric acid (L. casei): +++ (no more than 0.25% (v/v))
- Lactic acid (L. casei): + (0.05% (v/v) or less)
- Acetic acid (Bac. Fragilis): + (0.05% (v/v) or less)
- Butyric acid (Bac. Fragilis): +++ (no more than 0.25% (v/v))
- Lactic acid (Bac. Fragilis): + (0.05% (v/v) or less)
- Acetic acid (E. Faecalis): + (0.05% (v/v) or less)
- Butyric acid (E. Faecalis): +++ (no more than 0.25% (v/v))
- Lactic acid (E. Faecalis): + (0.05% (v/v) or less)
- Acetic acid (E. coli): + (0.05% (v/v) or less)
- Butyric acid (E. coli): +++ (no more than 0.25% (v/v))
- Lactic acid (E. coli): −
- viability at 48 h, 0.1 % (w/v) ([2]; after 48 hours): 81 ± 15%
- viability at 72 h, 0.1 % (w/v) ([2]; after 72 hours): 45 ± 6.9%

— patent publication US11096951B2, “Prebiotic composition containing butyryl-fructooligosaccharides” (priority 2018, dated 2021)
